Data set [1] concerns the target Egl nine homolog 1 (Homo sapiens, UniProt Q9GZT9). The experiment in a line: Inhibition of PHD2 (unknown origin) using [1-14C]alphaKG as substrate assessed as substrate decarboxylation by measuring 14CO2 production incubated for 2 hrs by microplate reader analysis.
Data set [2] has as its target Voltage-gated inwardly rectifying potassium channel KCNH2 (Homo sapiens, UniProt Q12809). Kind of data set: Inhibition of human ERG upto 100 uM. It is filed as toxicity.

Sequence of Egl nine homolog 1 (Q9GZT9 whole entry): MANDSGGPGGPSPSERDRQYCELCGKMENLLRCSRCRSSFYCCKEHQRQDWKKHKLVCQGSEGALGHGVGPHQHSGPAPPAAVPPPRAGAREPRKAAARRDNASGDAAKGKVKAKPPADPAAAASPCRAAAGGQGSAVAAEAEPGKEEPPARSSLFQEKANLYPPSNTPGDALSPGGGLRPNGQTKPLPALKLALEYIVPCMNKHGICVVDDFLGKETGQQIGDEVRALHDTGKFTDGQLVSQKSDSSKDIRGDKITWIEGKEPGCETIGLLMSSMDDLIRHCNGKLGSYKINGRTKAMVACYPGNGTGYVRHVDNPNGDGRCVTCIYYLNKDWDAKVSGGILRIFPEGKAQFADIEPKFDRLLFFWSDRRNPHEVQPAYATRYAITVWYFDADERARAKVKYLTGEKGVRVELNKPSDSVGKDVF
Sequence of Voltage-gated inwardly rectifying potassium channel KCNH2 (Q12809 whole entry): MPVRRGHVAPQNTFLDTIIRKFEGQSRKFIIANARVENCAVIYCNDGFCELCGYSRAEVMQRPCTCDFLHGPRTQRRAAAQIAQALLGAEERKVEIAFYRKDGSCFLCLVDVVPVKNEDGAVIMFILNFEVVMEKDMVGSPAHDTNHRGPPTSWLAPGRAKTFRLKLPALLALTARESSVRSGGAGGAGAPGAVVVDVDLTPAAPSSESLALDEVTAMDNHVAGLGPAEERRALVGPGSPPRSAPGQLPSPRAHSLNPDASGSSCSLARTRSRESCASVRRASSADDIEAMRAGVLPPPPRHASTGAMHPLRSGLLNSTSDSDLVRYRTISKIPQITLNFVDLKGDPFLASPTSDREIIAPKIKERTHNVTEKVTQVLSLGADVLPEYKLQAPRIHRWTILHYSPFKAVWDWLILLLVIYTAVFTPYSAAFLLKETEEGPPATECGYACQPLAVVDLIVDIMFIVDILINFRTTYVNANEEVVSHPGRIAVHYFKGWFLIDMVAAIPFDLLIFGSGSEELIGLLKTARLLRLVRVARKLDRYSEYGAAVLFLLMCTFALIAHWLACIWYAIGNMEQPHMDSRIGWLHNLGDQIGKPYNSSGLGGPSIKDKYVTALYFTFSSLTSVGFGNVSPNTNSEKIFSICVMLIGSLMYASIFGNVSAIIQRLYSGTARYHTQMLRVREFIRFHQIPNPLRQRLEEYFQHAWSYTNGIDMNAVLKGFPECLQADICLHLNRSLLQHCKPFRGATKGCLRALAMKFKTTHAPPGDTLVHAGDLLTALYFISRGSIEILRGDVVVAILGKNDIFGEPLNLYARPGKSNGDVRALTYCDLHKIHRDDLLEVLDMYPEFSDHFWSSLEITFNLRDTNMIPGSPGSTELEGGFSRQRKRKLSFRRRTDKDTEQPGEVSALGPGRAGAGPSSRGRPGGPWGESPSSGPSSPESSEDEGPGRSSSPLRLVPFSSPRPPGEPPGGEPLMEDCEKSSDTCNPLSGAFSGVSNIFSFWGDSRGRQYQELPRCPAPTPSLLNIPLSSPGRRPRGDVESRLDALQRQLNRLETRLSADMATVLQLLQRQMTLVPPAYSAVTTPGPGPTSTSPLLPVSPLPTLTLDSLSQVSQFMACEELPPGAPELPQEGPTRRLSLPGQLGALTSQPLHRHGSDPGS

As to `O=C(NCc1ccncc1)c1ncc2c(=O)n(Cc3ccccc3)ccc2c1O`, the IC50 in data set [1] stood at 200 nM.
Turning to `O=C(NCc1ccnnc1)c1ncc2c(=O)n(C3CCCCC3)ccc2c1O`, the “inhibition (INH)” value in data set [2] is given as “Not_active”.

The IC50 is the concentration that inhibits the measured activity by half.

These data come from ChEMBL document CHEMBL6115025, “Discovery of Novel, Potent, Orally Bioavailable and Efficacious, Hypoxia-Inducible Factor Prolyl Hydroxylase Inhibitors for Hematopoietic Stem Cell Mobilization” (J Med Chem, 2025).
